Data: patent US11834424B2, “Compounds useful as chaperone-mediated autophagy modulators” (ALBERT EINSTEIN COLLEGE OF MEDICINE, priority 2018, dated 2023)
Read-outs that look alike come from different tables or passages of the source.

Experiment: Pharmacokinetics (plasma and brain levels) in ICR (CD-1) mice
Type: in vivo
Conditions: male, mouse; for AUC(0-inf): read-out: AUCINF_obs; for MRT inf: read-out: MRTINF_obs
Procedure: ICR (CD-1) male mice were fasted at least three horns and water was available ad libitum before the study. Animals were housed in a controlled environment, target conditions: temperature 18 to 29° C., relative humidity 30 to 70%. Temperature and relative humidity was monitored daily. An electronic time controlled lighting system was used to provide a 12 h light/12 h dark cycle. 3 mice for each indicated time point. ICR (CD-1) mice were administered CA77 at 1 mg/kg i.v. and 30 mg/kg p.o. or CA77.1 at 1 mg/kg i.v. (FIG. 2A) and 10 mg/kg p.o. (FIG. 2B). Three (3) mice were included in each dosage and time group. Mice were sacrificed and plasma and brains were obtained at 0.083, 0.25, 0.50, 1.0, 2.0, 4.0, 8.0, and 24.0 hours after administration and drug concentration determined using LC-MS/MS. Brains were removed, homogenized with a tissue homogenizer in cold 5% w/v BSA in phosphate buffer saline (PBS). A 100 microliter aliquots of brain samples were dispensed in to glass culture tubes and mixed with ethyl acetate (800 μl), vortexed, and centrifuged. The organic layer was transferred to a fresh culture tube, dried under nitrogen, and reconstituted in mobile phase for quantitation. Pharmacokinetic parameters were determined by standard methods using Phoenix WinNonlin 6.3 software.
Tables 3A and 3B provide the concentrations of CA77 in ICR (CD-1) mouse plasma (3A) and mouse brain (3B) following i.v. administration of 1 mg/kg CA77. Table 3C provides the brain/plasma ratio of CA77 following i.v. administration of 1 mg/kg CA77. Shaded cells indicate data not included in statistics due to aberrant value. BLQ=Below Limit of Quantitation.
Tables 5A and 5B provide the concentrations of CA77.1 in ICR (CD-1) mouse plasma (5A) and mouse brain (5B) following i.v. administration of 1 mg/kg CA77.1. Table 5C provides the brain/plasma ratio of CA77.1 following i.v. administration of 1 mg/kg CA77.1. The plasma and brain pharmacokinetic parameters for CA77.1 are provided in Table 6. *—cells contain data not present in the statistics.

[1] = ICR (CD-1), brain/plasma, iv, 1 mg/kg, i.v. 1 mg/kg, read-out: Brain/Plasma ratio, Mean
[2] = ICR (CD-1), brain/plasma, iv, 1 mg/kg, i.v. 1 mg/kg, read-out: Brain/Plasma ratio, individual animal
[3] = ICR (CD-1), plasma, iv, 1 mg/kg, i.v. 1 mg/kg, mouse plasma, read-out: Conc. in plasma, Mean
[4] = ICR (CD-1), plasma, iv, 1 mg/kg, i.v. 1 mg/kg, mouse plasma, read-out: Conc. in plasma, individual animal
[5] = plasma, iv, i.v. 1 mg/kg, ICR (CD-1) mice
[6] = plasma, po, p.o. 10 mg/kg, ICR (CD-1) mice

concentration at 24 h (ICR (CD-1), brain, iv, 1 mg/kg, i.v. 1 mg/kg, mouse brain, read-out: Conc. in brain, Mean): 0 ng/g | concentration at 24 h (ICR (CD-1), brain, iv, 1 mg/kg, i.v. 1 mg/kg, mouse brain, read-out: Conc. in brain, individual animal): 0 ng/g | Kp at 0.083 h [1]: 5.64 | Kp at 0.083 h [2]: 5.81 | Kp at 0.25 h [1]: 6.19 | Kp at 0.25 h [2]: 6.54 | Kp at 0.5 h (ICR (CD-1), brain/plasma, iv, 1 mg/kg, i.v. 1 mg/kg, 0.50 h, read-out: Brain/Plasma ratio, Mean): 3.92 | Kp at 1 h [1]: 7.52 | Kp at 1 h [2]: 5.44 | Kp at 2 h (ICR (CD-1), brain/plasma, iv, 1 mg/kg, i.v. 1 mg/kg, 2.00 h, read-out: Brain/Plasma ratio, Mean): 6.22 | Kp at 4 h (ICR (CD-1), brain/plasma, iv, 1 mg/kg, i.v. 1 mg/kg, 4.00 h, read-out: Brain/Plasma ratio, Mean): 4 | Kp at 8 h [1]: 2.23 | Kp at 8 h [2]: 1.79 | Kp at 24 h [1]: 0 | Kp at 24 h [2]: 0 | concentration at 0.083 h [3]: 190 ng/mL | concentration at 0.083 h [4]: 177 ng/mL | concentration at 0.25 h [3]: 129 ng/mL | concentration at 0.25 h [4]: 132 ng/mL | concentration at 0.5 h (ICR (CD-1), plasma, iv, 1 mg/kg, i.v. 1 mg/kg, mouse plasma, 0.50 h, read-out: Conc. in plasma, Mean): 276 ng/mL | concentration at 1 h [3]: 91 ng/mL | concentration at 1 h [4]: 110 ng/mL | concentration at 2 h (ICR (CD-1), plasma, iv, 1 mg/kg, i.v. 1 mg/kg, mouse plasma, 2.00 h, read-out: Conc. in plasma, Mean): 46 ng/mL | concentration at 4 h (ICR (CD-1), plasma, iv, 1 mg/kg, i.v. 1 mg/kg, mouse plasma, 4.00 h, read-out: Conc. in plasma, Mean): 6 ng/mL | concentration at 8 h [3]: 2 ng/mL | concentration at 8 h [4]: 2.74 ng/mL | concentration at 24 h [3]: 1 ng/mL | concentration at 24 h [4]: 0.556 ng/mL | AUC(0-t) [5]: 314 ng·h/mL | half-life [5]: 1.39 h | AUC(0-inf) [5]: 315 ng·h/mL | MRT inf [5]: 2 h | bioavailability (plasma, oral, p.o. 10 mg/kg vs i.v. 1 mg/kg, ICR (CD-1) mice): 46.4% | AUC(0-t) [6]: 1460 ng·h/mL | half-life [6]: 2.78 h | AUC(0-inf) [6]: 1460 ng·h/mL | Cmax (plasma, po, p.o. 10 mg/kg, ICR (CD-1) mice, read-out: Cmax): 464 ng/mL | MRT inf [6]: 3 h | Tmax (plasma, po, p.o. 10 mg/kg, ICR (CD-1) mice, read-out: Tmax): 1 h
Compound: CC(=O)Nc1ccc(-c2cnc3cc(Cl)ccc3n2)cc1 [CA77.1, N-(4-(6-chloroquinoxalin-2-yl)phenyl)acetamide]
